Values joined by “and” are separate entries in the source; they are usually repeats but may differ in a detail not shown here. Equal entries are not always repeated.

Consider one compound from patent US20220016079A1, “COMBINATION TREATMENT OF HIV INFECTIONS” (priority 2018, published 2022).

Experiment [1] deals with HIV-1 (JR-CSF). Description: Efficacy study in HIV-1 infected humanized BLT mice: HIV-1 loads in blood (qPCR). In kind it is in vivo. The settings on record: 4 weeks of treatment starting 12 weeks after infection; n=8 per group. The text has this:
Methods: Humanized BLT mice were generated by implanting human fetal liver and thymus tissues under the kidney capsule of an immunodeficient NOD scid gamma (NSG=NOD.Cg-Prkdc^scidII12rg^tm1Wjl/SzJ) mouse, followed by an administration of autologous human fetal liver CD34+ cells (human hematopoietic stem cells). In BLT mice, T cell education occured in the human thymic tissue, resulting in complete systemic reconstitution of all major human hematopoietic lineages including T, B, monocyte/macrophage, dendritic, and natural killer cells. The extensive systemic and genital mucosal reconstitution with human lymphoid cells rendered female humanized BLT mice susceptible to both vaginal and rectal HIV infection. […]
(§1) R5 HIV (JR-CSF) was produced by 293T transfection and quantified by p24 ELISA. Humanized mice were infected with JR-CSF (200 ng of p24) and viral replication quantified weekly by qPCR for up to 16 weeks.
Methods: Thirty-two BLT mice were infected with HIV-1. 12 weeks later mice were split in 4 groups (n=8), treated with various regimen and analyzed for 6 weeks. […] Body weight, HIV-1 loads and PD-1 expression on CD8+ T cells were analyzed once weekly. […] The remaining mice (4×5=20) were sacrificed 2 weeks after treatment completion and viral RNA levels in organ reservoirs (spleen, thymic organoid, lung, spleen, lymph nodes and liver) were quantified by qPCR.
For orientation: Real-time PCR tracks product formation cycle by cycle.

The test system of experiment [2] is HIV-infected resting CD4+ T cells (rCD4). Description: Lysis of HIV-infected resting CD4+ T cells (rCD4) by CD8+ T cells and NK cells (LDH activity). The experiment is classed as cell-based, human. The conditions noted are these: 0, 1 and 10 μM, mono- or co-cultures of rCD4, CD4+, 24 and 48 h. On the procedure:
It was investigated whether the Debio-1143-induced reversal of HIV-1 latency, by restoring HIV-1 protein production in rCD4, would permit viral peptide exposure with MHC on infected rCD4+ T cells and allow recognition and lysis by CD8+ T cells and/or NK cells.
Method: Human CD4+ T cells, CD8+ T cells and NK cells were isolated following manufacturer's instruction (beads coated with specific antibodies) from one blood donor (500 mL). Ninety percent of CD4+ T cells were infected with HIV-1 (JR-CSF) (1 μg of p24), incubated for 4 days to allow establishment of infection, and then treated with ART for 3 days. Suppression of replication was verified by p24 ELISA in supernatants. rCD4 were then isolated following manufacturer's instruction. Infected and ART-treated rCD4 were mixed with uninfected CD4+ T cells, CD8+ T cells and NK cells a 1:1 ratio (100,000 cells) for 24 and 48 in triplicate. Mono-culture of each cell populations were used as controls. DMSO or Debio-1143 (0, 1 and 10 μM) were added to mono- or co-cultures for 24 and 48 h. Cell killing was quantified by LDH activity.

Experiment [3] concerns HIV-1 (JR-CSF). Description: Efficacy study in HIV-1 infected humanized BLT mice: viral RNA levels in organ reservoirs (qPCR). In kind it is in vivo.
Description: Methods: Humanized BLT mice were generated by implanting human fetal liver and thymus tissues under the kidney capsule of an immunodeficient NOD scid gamma (NSG=NOD.Cg-Prkdc^scidII12rg^tm1Wjl/SzJ) mouse, followed by an administration of autologous human fetal liver CD34+ cells (human hematopoietic stem cells). In BLT mice, T cell education occured in the human thymic tissue, resulting in complete systemic reconstitution of all major human hematopoietic lineages including T, B, monocyte/macrophage, dendritic, and natural killer cells. The extensive systemic and genital mucosal reconstitution with human lymphoid cells rendered female humanized BLT mice susceptible to both vaginal and rectal HIV infection.
Humanized BLT mice were generated by implanting 1-mm^3 pieces of human fetal liver and thymus tissues (Advanced Bioscience Resources) under the kidney capsule in 6 to 8-week-old female NSG mice (Jackson Laboratories) bred at The Scripps Research Institute (TSRI). Each cohort was produced with tissues from a single donor. CD34+ HSPC were purified from autologous fetal liver tissue, isolated by magnetic bead selection for CD34+ cells (Miltenyi), phenotyped cytometrically for engraftment success (CD34+, HLA DR-), and cryopreserved until injection (200,000 CD34+ cells) into mice 3 weeks after thymus/liver implantation. Human reconstitution was verified by flow cytometry (CD45+, CD3+, CD4+ and CD8+) in peripheral blood of the mice.
as §1
Methods: Thirty-two BLT mice were infected with HIV-1. 12 weeks later mice were split in 4 groups (n=8), treated with various regimen and analyzed for 6 weeks. Group A received both vehicles for 4 weeks. Group B received Debio-1143 (100 mg/kg; QD1-5, p.o.) for 4 weeks (Debio-1143 was given 5 days a week for 4 weeks). Group C received the anti-PD-1 antibody (200 μg/dose, i.p., BIW) for 4 weeks. Group D received the combination of Debio-1143 (100 mg/kg; QD1-5, p.o.) together with the anti-PD-1 antibody (200 μg/dose i.p. BIW) for 4 weeks. Body weight, HIV-1 loads and PD-1 expression on CD8+ T cells were analyzed once weekly. After the 4 weeks of treatment, three mice per group were sacrificed for bioanalytical assessments. The remaining mice (4×5=20) were sacrificed 2 weeks after treatment completion and viral RNA levels in organ reservoirs (spleen, thymic organoid, lung, spleen, lymph nodes and liver) were quantified by qPCR.

The test system of experiment [4] is latent HIV-1 in 2D10 cells. In words: HIV-1 reactivation in latent GFP-reporter 2D10 cells, Debio 1143 and other LRAs alone or in combination. The experiment is classed as cell-based. The conditions noted are these: single agents, 48 h. The protocol: We compared the efficacy of Debio-1143 at reversing HIV-1 latency with that of other LRAs. We then analyzed the cytotoxicity of Debio-1143 with that of the other LRAs on 2D10 cells. Drug titration was conducted.
Methods: HIV-1 latent GFP-reporter 2D10 cells (100,000 cells/100 μL) were treated in triplicate for 48 h with increasing concentrations of either only Debio-1143 or the LRAs (2000 nM or 20000 nM), or with Debio 1143 (2000 nM or 20000 nM) in combination with the LRAs at a single predetermined concentration (see Table 2). HIV reactivation was analyzed via GFP expression by flow cytometry.

Experiment [5] has as its system latent HIV in resting CD4+ T-lymphocytes. In words: HIV-1 reactivation in resting CD4+ T cells from PBMCs of three ART-treated HIV patients (HIV RNA in supernatant). In kind it is cell-based, human. The source says:
The experiments of this example analyzed the ability of IAPa, ICIs, or IAPa/ICI combinations at reactivating latent HIV in resting CD4+ T-lymphocytes isolated from peripheral blood monocytic cells (PBMCs) derived from HIV patients currently under ART.
Method: Resting CD4+ T cells were isolated from PBMCs of three ART-treated HIV patients by negative selection and magnetic separation (Easysep Mouse/Human Chimera Isolation Kits from […] technologies). Isolated resting CD4+ T cells (50,000 cells/50 μL) were treated in duplicate for 48h with different IAPa (1 μM) or ICI (10 μg/ml) in monotherapy, or the IAPa/ICI combinations. Amounts of virions released from cells were quantified at the indicated time points by quantifying HIV RNA levels (HIV RNA copies/mL) in supernatant of cell culture using one-step reverse transcriptase quantitative real-time PCR (ABI custom TaqMan Assays-by-Design) according to the manufacturer's instructions. Primers were 5-[…]-3 and 5-[…]-3, and MGB probe 5-FAM-[…]-Q-3, where FAM is 6-carboxyfluorescein.
The experiment was carried out using the same agents as described above for Example 8.1 (with the exception that no birinapant was used).

As to `CN[C@@H](C)C(=O)N[C@H]1CN(C(=O)CC(C)C)CC[C@H]2CC[C@@H](C(=O)NC(c3ccccc3)c3ccccc3)N2C1=O` [Debio 1143, (5S,8S,10aR)-N-benzhydryl-5-((S)-2-(methylamino)propanamido)-3-(3-methylbutanoyl)-6-oxodecahydropyrrolo[1,2-a][1,5]diazocine-8-carboxamide], in the experiment on HIV-1 (JR-CSF) [1], the “HIV titers in blood” value is given as “increased viral titers”. Moreover, in experiment [2], the “cell killing (LDH activity)” value was “Low cell death was observed in all mono- and co-cultures except for the rCD4:CD8+ T cells co-culture”. Further, the “HIV load in organs (viral RNA levels in organ reservoirs)” value in the experiment with HIV-1 (JR-CSF) [3] (2 weeks after treatment completion, CD4+ cells of spleen, thymic organoid, lung, lymph nodes, liver) is “has no effect”. In addition, in the experiment with HIV-1 (JR-CSF) [3] (individual mice #1-5), the “Tissue HIV Load at Week 18, Liver” value was 5.2 Log Viral RNA Copies/100,000 CD4+ Cells and 4.2 Log Viral RNA Copies/100,000 CD4+ Cells and 4.9 Log Viral RNA Copies/100,000 CD4+ Cells and 5.5 Log Viral RNA Copies/100,000 CD4+ Cells and 5.9 Log Viral RNA Copies/100,000 CD4+ Cells; the “Tissue HIV Load at Week 18, Lung” value is 3.9 Log Viral RNA Copies/100,000 CD4+ Cells and 5.7 Log Viral RNA Copies/100,000 CD4+ Cells and 4.4 Log Viral RNA Copies/100,000 CD4+ Cells and 6.1 Log Viral RNA Copies/100,000 CD4+ Cells and 6.5 Log Viral RNA Copies/100,000 CD4+ Cells; the “Tissue HIV Load at Week 18, Lymph nodes” value is 4.4 Log Viral RNA Copies/100,000 CD4+ Cells and 5 Log Viral RNA Copies/100,000 CD4+ Cells and 5.3 Log Viral RNA Copies/100,000 CD4+ Cells and 6.3 Log Viral RNA Copies/100,000 CD4+ Cells and 7.2 Log Viral RNA Copies/100,000 CD4+ Cells; the “Tissue HIV Load at Week 18, Spleen” value was 4.4 Log Viral RNA Copies/100,000 CD4+ Cells and 6.4 Log Viral RNA Copies/100,000 CD4+ Cells and 5.2 Log Viral RNA Copies/100,000 CD4+ Cells and 5.5 Log Viral RNA Copies/100,000 CD4+ Cells and 6.7 Log Viral RNA Copies/100,000 CD4+ Cells. Also, the “Tissue HIV Load at Week 18, Thymic organoid” value in the experiment with HIV-1 (JR-CSF) [3] (individual mice #1-5) is 4.6 Log Viral RNA Copies/100,000 CD4+ Cells and 5.3 Log Viral RNA Copies/100,000 CD4+ Cells and 3.9 Log Viral RNA Copies/100,000 CD4+ Cells and 5.7 Log Viral RNA Copies/100,000 CD4+ Cells and 6.2 Log Viral RNA Copies/100,000 CD4+ Cells. Besides, in the experiment with HIV-1 (JR-CSF) [3] (mean of 5 mice), the “Tissue HIV Load at Week 18, Liver” value is recorded as 5.14 Log Viral RNA Copies/100,000 CD4+ Cells; the “Tissue HIV Load at Week 18, Lung” value is given as 5.32 Log Viral RNA Copies/100,000 CD4+ Cells; the “Tissue HIV Load at Week 18, Lymph nodes” value is listed as 5.64 Log Viral RNA Copies/100,000 CD4+ Cells; the “Tissue HIV Load at Week 18, Spleen” value is given as 5.64 Log Viral RNA Copies/100,000 CD4+ Cells. The “Tissue HIV Load at Week 18, Thymic organoid” value in the experiment on HIV-1 (JR-CSF) [3] (mean of 5 mice) is on record as 5.14 Log Viral RNA Copies/100,000 CD4+ Cells. In experiment [4], the “HIV-1 latency reversal (GFP expression)” value was “reversed HIV-1 latency” and the “potency as LRA compared with other LRAs” value is recorded as “one of the most potent LRA”. For the same compound, in experiment [5] (IAPa 1 μM monotherapy (0.1% DMSO, no ICI), 48 h), the “latency reversal class (HIV RNA copies/ml in supernatant)” value (“latency reversal class” below) was 1 (Between 501 and 1000 RNA copies/ml were classified as “1”). Further, the “latency reversal class” value in experiment [5] (IAPa 1 μM with Control IgG1, 48 h) was 1 (Between 501 and 1000 RNA copies/ml were classified as “1”). Moreover, the “latency reversal class” value in experiment [5] (IAPa 1 μM with Control IgG2, 48 h) was 1 (Between 501 and 1000 RNA copies/ml were classified as “1”).
